pIC50, pKi: −log10 of the molar value. Activity calls are given as the source filed them. No cut-off for these calls is given here.
Assays:
LSD1/CoREST complex [1] = target: T1, LSD1/CoREST complex (Homo sapiens, UniProt O60341); assay: Inhibition of recombinant human KDM1A/CoREST complex expressed in Escherichia coli using [Lys(Me1)4]-Histone H3 (1 to 21 residues)-GGK(biotin) as substrate incubated for 20 mins measured after 1 hr by TR-FRET assay
[2] = target: T2, Amine oxidase [flavin-containing] A (Homo sapiens, UniProt P21397); assay: Inhibition of recombinant human MAOA incubated for 15 mins measured after 30 mins by luminescence-Glo assay
T2 sequence (P21397 whole entry): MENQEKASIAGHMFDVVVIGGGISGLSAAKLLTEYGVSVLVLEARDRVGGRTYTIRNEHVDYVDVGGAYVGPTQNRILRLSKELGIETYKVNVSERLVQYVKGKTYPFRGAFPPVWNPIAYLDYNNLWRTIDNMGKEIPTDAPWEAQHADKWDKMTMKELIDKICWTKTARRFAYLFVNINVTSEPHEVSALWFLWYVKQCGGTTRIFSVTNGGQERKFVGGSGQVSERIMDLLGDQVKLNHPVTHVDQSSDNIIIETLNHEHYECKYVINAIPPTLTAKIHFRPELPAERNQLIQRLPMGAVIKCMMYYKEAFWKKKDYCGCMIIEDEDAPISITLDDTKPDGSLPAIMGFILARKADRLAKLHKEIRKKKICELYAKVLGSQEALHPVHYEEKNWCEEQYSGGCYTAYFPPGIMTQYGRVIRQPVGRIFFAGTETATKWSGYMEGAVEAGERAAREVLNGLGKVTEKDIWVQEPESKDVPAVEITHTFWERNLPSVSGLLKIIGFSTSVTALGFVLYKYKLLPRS

[3] = target: T3, Lysine-specific histone demethylase 2 (Homo sapiens, UniProt Q8NB78); assay: Inhibition of KDM1B (unknown origin)
T3 sequence (Q8NB78 whole entry): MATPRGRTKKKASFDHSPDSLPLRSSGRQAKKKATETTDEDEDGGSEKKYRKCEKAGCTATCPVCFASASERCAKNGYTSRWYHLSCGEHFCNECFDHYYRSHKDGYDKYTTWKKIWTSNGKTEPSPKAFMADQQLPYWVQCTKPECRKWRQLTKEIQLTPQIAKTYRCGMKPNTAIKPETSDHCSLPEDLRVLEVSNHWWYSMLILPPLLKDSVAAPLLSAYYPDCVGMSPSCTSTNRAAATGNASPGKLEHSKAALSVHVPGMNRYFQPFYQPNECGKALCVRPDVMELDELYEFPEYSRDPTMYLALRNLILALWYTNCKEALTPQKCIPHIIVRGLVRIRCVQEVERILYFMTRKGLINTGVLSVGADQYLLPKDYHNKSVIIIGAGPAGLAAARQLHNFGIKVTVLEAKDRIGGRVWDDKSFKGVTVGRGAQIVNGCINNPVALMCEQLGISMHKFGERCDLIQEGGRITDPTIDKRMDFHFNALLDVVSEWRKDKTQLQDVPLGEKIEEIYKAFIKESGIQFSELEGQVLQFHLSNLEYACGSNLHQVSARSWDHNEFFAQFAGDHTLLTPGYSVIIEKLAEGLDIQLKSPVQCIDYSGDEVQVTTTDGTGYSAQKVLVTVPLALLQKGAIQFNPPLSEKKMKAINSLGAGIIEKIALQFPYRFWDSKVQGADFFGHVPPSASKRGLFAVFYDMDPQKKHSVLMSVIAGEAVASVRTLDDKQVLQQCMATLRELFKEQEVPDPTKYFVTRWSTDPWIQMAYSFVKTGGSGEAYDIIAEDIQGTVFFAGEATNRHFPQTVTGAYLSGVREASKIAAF

THP-1 [4] = assay: Induction of apoptosis in human THP1 cells at 0.5 uM after 72 hrs by Annexin V-propidium iodide double staining based flow cytometry; format: functional, cell-based
THP-1 [5] = assay: Cell cycle arrest in human THP1 cells at 0.5 uM after 72 hrs by propidium iodide staining based flow cytometry; format: functional
THP-1 [6] = assay: Anticlonogenic activity against human THP1 cells assessed as inhibition of methylcellulose colony formation at 0.5 uM after 13 days relative to control; format: functional; settings: THP-1, 312 h
LSD1/CoREST complex [7] = target: T1, LSD1/CoREST complex; assay: Competitive inhibition of recombinant human KDM1A/CoREST complex expressed in Escherichia coli using H3K4me peptide as substrate preincubated for 15 mins followed by substrate addition measured for 12 mins by Lineweaver-Burk plot analysis
[8] = target: T4, Amine oxidase [flavin-containing] B (Homo sapiens, UniProt P27338); assay: Inhibition of recombinant human MAOB incubated for 15 mins measured after 30 mins by luminescence-Glo assay
T4 sequence (P27338 whole entry): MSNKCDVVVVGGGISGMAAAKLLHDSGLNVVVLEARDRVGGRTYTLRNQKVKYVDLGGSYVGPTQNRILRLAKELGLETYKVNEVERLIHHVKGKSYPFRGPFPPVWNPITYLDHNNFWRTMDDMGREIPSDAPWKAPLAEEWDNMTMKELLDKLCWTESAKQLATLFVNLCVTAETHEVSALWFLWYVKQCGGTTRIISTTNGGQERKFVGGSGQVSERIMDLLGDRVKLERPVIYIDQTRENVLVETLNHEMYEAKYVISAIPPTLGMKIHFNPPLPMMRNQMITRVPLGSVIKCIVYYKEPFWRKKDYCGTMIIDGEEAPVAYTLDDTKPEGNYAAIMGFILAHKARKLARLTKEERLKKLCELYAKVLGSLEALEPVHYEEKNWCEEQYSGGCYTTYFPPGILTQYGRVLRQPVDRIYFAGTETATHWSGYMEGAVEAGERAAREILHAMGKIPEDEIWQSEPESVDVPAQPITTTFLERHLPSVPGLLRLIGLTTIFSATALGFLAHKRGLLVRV

[9] = target: Lysine-specific histone demethylase 1A (Homo sapiens) (UniProt O60341); assay: Inhibition of KDM1A in human THP1 cells assessed as increase in CD86 expression level at 0.5 uM after 48 hrs by flow cytometric analysis; format: cell-based
[10] = target: Lysine-specific histone demethylase 1A (Homo sapiens) (UniProt O60341); assay: Inhibition of KDM1A in human THP1 cells assessed as increase in CD11b expression level at 0.5 uM after 48 hrs by flow cytometric analysis; format: cell-based
MV4-11 = assay: Antiproliferative activity against human MV4-11 cells
NB-4 = assay: Antiproliferative activity against human NB4 cells
THP-1 [11] = assay: Antiproliferative activity against human THP1 cells
THP-1 [12] = assay: Induction of apoptosis in human THP1 cells at 1 uM after 72 hrs by Annexin V-propidium iodide double staining based flow cytometry; format: functional, cell-based
THP-1 [13] = assay: Cell cycle arrest in human THP1 cells at 1 uM after 72 hrs by propidium iodide staining based flow cytometry; format: functional
THP-1 [14] = assay: Anticlonogenic activity against human THP1 cells assessed as inhibition of methylcellulose colony formation at 1 uM after 13 days relative to control; format: functional; settings: THP-1, 312 h

| Compound | pIC50 (LSD1/CoREST complex [1]) | other results |
| --- | --- | --- |
| Cn1c(C(=O)Nc2ccccc2COc2ccc(OC3CCCNC3)cc2)cc2sccc21 (stereo unspecified) | 6.17 | – |
| CN1CCC(Oc2ccccc2OCc2ccccc2NC(=O)c2cc3sccc3n2C)CC1 | 4.17 | – |
| N[C@H]1CC[C@H](N[C@@H]2C[C@H]2c2ccccc2)CC1 | – | pIC50 [2]: 4.38; pIC50 [3]: 4.89; Activity (THP-1 [4]): inactive; Activity (THP-1 [5]): inactive; inhibition at 0.5 µM (THP-1 [6]): 70% |
| CN1CCC(Oc2ccc(OCc3ccccc3NC(=O)c3cc4sccc4n3C)cc2)CC1 | 6.48 to 6.51 | pKi (LSD1/CoREST complex [7]): 5.64 |
| COCc1cccc(NC(=O)c2cc3sccc3n2C)c1COc1ccc(OC[C@H]2CCNC2)cc1 | 7.07 | – |
| CC(=O)N1CCC(Oc2ccc(OCc3ccccc3NC(=O)c3cc4sccc4n3C)cc2)CC1 | < 4.00 | – |
| COc1ccc(NC(=O)c2cc3sccc3n2C)cc1 | < 4.00 | – |
| Cn1c(C(=O)Nc2ccccc2COc2ccc(O[C@H]3CC[C@@H](N)CC3)cc2)cc2sccc21 | 6.92 | – |
| CCOCc1cccc(NC(=O)c2cc3sccc3n2C)c1COc1ccc(OC[C@@H]2CCNC2)cc1 | 8.11 | pIC50 [2]: 4.38; pIC50 [8]: < 4.00; inhibition [9]: Active; inhibition [10]: Active; pIC50 (MV4-11): 5.60; pIC50 (NB-4): 5.92; pIC50 (THP-1 [11]): 5.62; Activity (THP-1 [12]): inactive; Activity (THP-1 [13]): inactive; inhibition at 1 µM (THP-1 [14]): 70.5% |
| Cn1c(C(=O)Nc2ccccc2COc2ccc(OCC3CNC3)cc2)cc2sccc21 | 6.21 | – |
| Cn1c(C(=O)Nc2ccccc2COc2ccc(OC3CCNCC3)cc2)cc2sccc21 | 7.03 to 7.05 | – |
| COCc1cccc(NC(=O)c2cc3sccc3n2C)c1COc1ccc(OC[C@@H]2CCNC2)cc1 | 8.08 | pIC50 [2]: 4.60; pIC50 [8]: < 4.00; inhibition [9]: Active; inhibition [10]: Active; pIC50 (MV4-11): 5.92; pIC50 (NB-4): 6.40; pIC50 (THP-1 [11]): 5.89 |
| CCN1CCC(Oc2ccc(OCc3ccccc3NC(=O)c3cc4sccc4n3C)cc2)CC1 | 6.35 | – |
| CN1CCC(Oc2cccc(OCc3ccccc3NC(=O)c3cc4sccc4n3C)c2)CC1 | 6.00 | – |
| Cn1c(C(=O)Nc2ccccc2COc2ccc(OC[C@@H]3CCNC3)cc2)cc2sccc21 | 7.74 | – |
| CCOCc1cccc(NC(=O)c2cc3sccc3n2C)c1COc1ccc(OC2CCNCC2)cc1 | 7.25 | – |
| Cn1c(C(=O)Nc2ccccc2CCc2ccc(OC3CCNCC3)cc2)cc2sccc21 | 6.75 | – |
| CN1CCC(Oc2ccc(COc3ccccc3NC(=O)c3cc4sccc4n3C)cc2)CC1 | 6.47 | – |
| Cn1c(C(=O)Nc2ccccc2COc2ccc([C@H]3CC[C@H](N)CC3)cc2)cc2sccc21 | 6.47 | – |
| Cn1c(C(=O)Nc2ccccc2COc2ccc(OC3CCCNCC3)cc2)cc2sccc21 (stereo unspecified) | 7.19 | – |
| COCc1ccccc1NC(=O)c1cc2sccc2n1C | < 4.00 | – |
| Cn1c(C(=O)Nc2ccccc2COc2ccc(NC3CCNCC3)cc2)cc2sccc21 | 5.60 | – |
| Cn1c(C(=O)Nc2ccccc2COc2ccc(OCC3CCNC3)cc2)cc2sccc21 (stereo unspecified) | 7.66 | – |
| Cn1c(C(=O)Nc2ccccc2C(=O)Nc2ccc(OC3CCNCC3)cc2)cc2sccc21 | 5.66 | – |

— ChEMBL document CHEMBL4007416, “Thieno[3,2-b]pyrrole-5-carboxamides as New Reversible Inhibitors of Histone Lysine Demethylase KDM1A/LSD1. Part 2: Structure-Based Drug Design and Structure-Activity Relationship” (J Med Chem, 2017)
